Reference: paper PMC8119466, “A screen of FDA-approved drugs identifies inhibitors of protein tyrosine phosphatase 4A3 (PTP4A3 or PRL-3)” (Scientific Reports, 2021)
Counter-ions that a name gives are not always drawn. Like-named read-outs stand apart in the source and are kept apart here.

Columns and labels:
Type in all cases: biochemical
recombinant PRL-1 = biological target: T1, recombinant PRL-1 (Homo sapiens, UniProt Q93096); assay: In vitro phosphatase assay (DiFMUP hydrolysis), PRL-1; further: test concentration or dose not given here
T1 construct: 6xHis (N, cleaved yes); made in house; host or cells: E. coli One Shot BL21 Star
T1 sequence (Q93096 1-173): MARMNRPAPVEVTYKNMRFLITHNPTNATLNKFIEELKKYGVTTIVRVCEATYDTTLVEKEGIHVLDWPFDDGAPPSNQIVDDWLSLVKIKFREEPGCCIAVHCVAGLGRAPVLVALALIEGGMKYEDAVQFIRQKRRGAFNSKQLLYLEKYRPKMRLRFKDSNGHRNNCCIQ

recombinant PRL-2 = biological target: T2, recombinant PRL-2 (Homo sapiens, UniProt Q12974); assay: In vitro phosphatase assay (DiFMUP hydrolysis), PRL-2;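 further: PRL-2 activity read as DiFMUP hydrolysis after 20 min at room temperature with drug, enzyme first pre-reduced at 4 °C for 20 min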
T2 construct: 6xHis (N, cleaved yes); made in house; host or cells: E. coli One Shot BL21 Star
T2 sequence (Q12974 1-167): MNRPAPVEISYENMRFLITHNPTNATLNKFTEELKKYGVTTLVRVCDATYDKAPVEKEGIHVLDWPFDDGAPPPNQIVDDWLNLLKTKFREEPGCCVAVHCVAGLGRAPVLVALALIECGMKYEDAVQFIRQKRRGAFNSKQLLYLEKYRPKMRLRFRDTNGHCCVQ

recombinant PRL-3 = biological target: T3, recombinant PRL-3 (Homo sapiens, UniProt O75365); assay: In vitro phosphatase assay (DiFMUP hydrolysis), PRL-3; further: test concentration or dose not given here
T3 construct: 6xHis (N, cleaved yes); made in house; host or cells: E. coli One Shot BL21 Star
T3 sequence (O75365 whole entry): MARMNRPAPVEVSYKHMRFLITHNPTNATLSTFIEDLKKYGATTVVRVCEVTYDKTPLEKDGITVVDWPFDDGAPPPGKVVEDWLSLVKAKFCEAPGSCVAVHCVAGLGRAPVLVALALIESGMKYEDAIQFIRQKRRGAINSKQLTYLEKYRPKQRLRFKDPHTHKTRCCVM

[1] = FDA-approved drug screen, compared to DMSO
[2] = FDA-approved drug screen, activity compared to DMSO

Row | Structure (SMILES) | % Phosphatase Activity (compared to DMSO) PRL-1 (recombinant PRL-1; [1]) [%] | % Phosphatase Activity (compared to DMSO) PRL-2 (recombinant PRL-2; [1]) [%] | % Phosphatase Activity (compared to DMSO) PRL-3 (recombinant PRL-3; [1]) [%] | further results
1 | C=CC(=O)Nc1cccc(Oc2nc(Nc3ccc(N4CCN(C)CC4)cc3)nc3ccsc23)c1 [Olmutinib (HM61713, BI 1482694)] | 90 | 87 | 94 | –
2 | COc1ccc(C(=O)c2ccccc2)c(O)c1 [Oxybenzone] | 99 | 81 | 93 | –
3 | COc1cc2ncnc(Nc3ccc(F)c(Cl)c3)c2cc1OCCCN1CCOCC1 [Gefitinib (ZD1839)] | 93 | 102 | 77 | –
4 | Clc1ccc(C(Cn2ccnc2)OCc2ccsc2Cl)c(Cl)c1 (stereo not drawn) [Tioconazole] | – | – | – | % Phosphatase Activity (compared to DMSO) PRL-1 (recombinant PRL-1): 83%; % Phosphatase Activity (compared to DMSO) PRL-2 (recombinant PRL-2): 92%; % Phosphatase Activity (compared to DMSO) PRL-3 (recombinant PRL-3): 84%
5 | CC(=O)O.CC(=O)O.CC[C@H](C)C[C@H](C)CCCCCCCCC(=O)N[C@H]1C[C@@H](O)[C@@H](NCCN)NC(=O)[C@@H]2[C@@H](O)CCN2C(=O)[C@H]([C@H](O)CCN)NC(=O)[C@H]([C@H](O)[C@@H](O)c2ccc(O)cc2)NC(=O)[C@@H]2C[C@@H](O)CN2C(=O)[C@H]([C@@H](C)O)NC1=O [Caspofungin Acetate] | 106 | 113 | 109 | –
6 | CCCSc1nc(N[C@@H]2C[C@H]2c2ccc(F)c(F)c2)c2nnn([C@@H]3C[C@H](OCCO)[C@@H](O)[C@H]3O)c2n1 [Ticagrelor] | – | – | – | % Phosphatase Activity (compared to DMSO) PRL-1 (recombinant PRL-1; [2]): 97%; % Phosphatase Activity (compared to DMSO) PRL-2 (recombinant PRL-2; [2]): 94%; % Phosphatase Activity (compared to DMSO) PRL-3 (recombinant PRL-3; [2]): 85%
7 | CC1=NS(=O)(=O)c2cc(Cl)ccc2N1 [Diazoxide] | 99 | 94 | 89 | –
8 | Cc1ccc(-c2cc(C(F)(F)F)nn2-c2ccc(S(N)(=O)=O)cc2)cc1 [Celecoxib] | 92 | 81 | 71 | –
9 | CCOc1cc([C@@H](CS(C)(=O)=O)N2C(=O)c3cccc(NC(C)=O)c3C2=O)ccc1OC [Apremilast (CC-10004)] | 100 | 78 | 86 | –
10 | c1ccc2c(CC3=NCCN3)cccc2c1 [Naphazoline HCl] | 100 | 102 | 83 | –
11 | CCc1c(Cl)c(O)c(Cl)c(O)c1C(=O)O[C@H]1[C@H](O)[C@H](OC)[C@H](OC/C2=C\C=C\C[C@H](O)/C(C)=C/[C@H](CC)[C@@H](O[C@@H]3OC(C)(C)[C@@H](OC(=O)C(C)C)[C@H](O)[C@@H]3O)/C(C)=C/C(C)=C/C[C@@H]([C@@H](C)O)OC2=O)O[C@@H]1C [Fidaxomicin] | 85 | 63 | 62 | –
12 | c1cn2cc(-c3ccc4cn[nH]c4c3)nc(Nc3ccc(N4CCOCC4)cc3)c2n1 [GS-9973] | 294 | 209 | 104 | –
13 | CC1=NN(c2ccccc2)C(=O)C1 [Edaravone] | 90 | 82 | 72 | –
14 | CC(C)NCC(O)COc1ccc(CCOCC2CC2)cc1 (stereo not drawn) [Betaxolol] | – | – | – | % Phosphatase Activity (compared to DMSO) PRL-1 (recombinant PRL-1): 109%; % Phosphatase Activity (compared to DMSO) PRL-2 (recombinant PRL-2): 124%; % Phosphatase Activity (compared to DMSO) PRL-3 (recombinant PRL-3): 80%
15 | CCCCCCCCOc1ccccc1C(=O)Nc1ccc(C(=O)OCC[N+](C)(CC)CC)cc1 [Otilonium Bromide] | 102 | 105 | 111 | –
16 | CCOC(=O)c1ccc(O)cc1 [Ethylparaben] | 105 | 100 | 92 | –

Row | Structure (SMILES) | % Phosphatase Activity (compared to DMSO) PRL-1 (recombinant PRL-1; [1]) [%] | % Phosphatase Activity (compared to DMSO) PRL-2 (recombinant PRL-2; [1]) [%] | % Phosphatase Activity (compared to DMSO) PRL-3 (recombinant PRL-3; [1]) [%] | further results
17 | Cc1[nH]c(/C=C2\C(=O)Nc3ccccc32)c(C)c1CCC(=O)O [TSU-68 (SU6668, Orantinib)] | – | – | – | % Phosphatase Activity (compared to DMSO) PRL-1 (recombinant PRL-1; [2]): 75%; % Phosphatase Activity (compared to DMSO) PRL-2 (recombinant PRL-2; [2]): 52%; % Phosphatase Activity (compared to DMSO) PRL-3 (recombinant PRL-3; [2]): 52%
18 | Cc1ncc(CO)c(CO)c1O [Pyridoxine HCl] | 100 | 102 | 91 | –
19 | CC1=C(/C=C/C(C)=C/C=C/C(C)=C/C(=O)O)C(C)(C)CCC1 [Tretinoin] | – | – | – | % Phosphatase Activity (compared to DMSO) PRL-1 (recombinant PRL-1; [2]): 78%; % Phosphatase Activity (compared to DMSO) PRL-2 (recombinant PRL-2; [2]): 77%; % Phosphatase Activity (compared to DMSO) PRL-3 (recombinant PRL-3; [2]): 46%
20 | CC(C)C[C@H](NC(=O)CNC(=O)c1cc(Cl)ccc1Cl)B(O)O [MLN2238] | 102 | 105 | 86 | –
21 | CCN(CCO)CCCOc1ccc2c(Nc3cc(CC(=O)Nc4cccc(F)c4)[nH]n3)ncnc2c1 [Barasertib (AZD1152-HQPA)] | 91 | 95 | 76 | –
22 | CC1=C(C(=O)OC(C)C)C(c2cccc([N+](=O)[O-])c2)C(C(=O)OC2CN(C(c3ccccc3)c3ccccc3)C2)=C(N)N1 (stereo not drawn) [Azelnidipine] | 93 | 99 | 95 | –
23 | COc1ccc(C(CN(C)C)C2(O)CCCCC2)cc1 (stereo not drawn) [Venlafaxine] | – | – | – | % Phosphatase Activity (compared to DMSO) PRL-1 (recombinant PRL-1; [2]): 97%; % Phosphatase Activity (compared to DMSO) PRL-2 (recombinant PRL-2; [2]): 100%; % Phosphatase Activity (compared to DMSO) PRL-3 (recombinant PRL-3; [2]): 84%
24 | Clc1ccc(C(c2ccccc2Cl)C(Cl)Cl)cc1 (stereo not drawn) [Mitotane] | 98 | 93 | 103 | –
25 | NC(=O)CCC(N)C(=O)O (stereo in doubt) [D-glutamine] | 96 | 80 | 94 | –
26 | CCOC(=O)[N-]c1cn(N2CCOCC2)n[o+]1 [Molsidomine] | 99 | 110 | 79 | –
27 | C[C@]12CC[C@@H]3c4ccc(O)cc4C[C@@H](CCCCCCCCC[S+]([O-])CCCC(F)(F)C(F)(F)F)[C@H]3[C@@H]1CC[C@@H]2O (stereo partly drawn) [Fulvestrant] | 99 | 91 | 82 | –
28 | C#Cc1cccc(Nc2ncnc3cc(OCCOC)c(OCCOC)cc23)c1 [Erlotinib] | 113 | 110 | 123 | –
29 | COc1cc2c(Oc3ccc(NC(=O)C4(C(=O)Nc5ccc(F)cc5)CC4)cc3F)ccnc2cc1OCCCN1CCOCC1 [Foretinib (GSK1363089)] | 103 | 105 | 97 | –
30 | CCCCN1CCCCC1C(=O)Nc1c(C)cccc1C (stereo not drawn) [Bupivacaine HCl] | 108 | 108 | 82 | –
31 | CN(C)c1ccc2nc3ccc(=[N+](C)C)cc-3sc2c1 [Methylene Blue] | 55 | 72 | 45 | –
32 | COCCCOc1cc(C[C@@H](C[C@H](N)[C@@H](O)C[C@H](C(=O)NCC(C)(C)C(N)=O)C(C)C)C(C)C)ccc1OC [Aliskiren Hemifumarate] | 102 | 122 | 102 | –
